In assay [1] the target is DR1 (Homo sapiens, UniProt P01903+P01911, A100R/D57E/F55L/F60I/F76Y/I96L/L162R/M171V/P40L/Q125E/R42F/V115G/Y59C). The note with it: relative to parent 760.57.
Assay [2] concerns the target T1, DR4w4 (Homo sapiens, UniProt P01903+P01911, A100K/A169T/F76Y/I96L/K127E/L162R/M171V/N62H/P40V/Q125Y/R42H/S133A/S149N/S66Y/V115G/V209L/W38E). Particulars: relative to parent 760.57.
The subject of assay [3] is DR5.
Assay [4] concerns DR7.
For assay [5], the system named is DQ3.1. Particulars: for IC50: read-out: PADRE Class II Binding Affinities, Table VIII A.
Assay [6] concerns the target T2, DR3 (Homo sapiens, UniProt P01903+P01911, A100K/A102G/A103R/A169T/F55Y/I96L/K41T/L162R/M171V/P40S/Q125H/Q178H/Q39Y/R42S/S66N/T106N/T262R/W38E/Y61H). Particulars: relative to parent 760.57.
The target of assay [7] is T3, DRw53 (Homo sapiens, UniProt P01903+P13762). Particulars: relative to parent 760.57.
For assay [8], the system named is human PBMC T cell lines. The format is cell-based.
Assay [9] deals with T2, DR3. As to the kind of experiment: biochemical.
In assay [10] the target is T1, DR4w4. As to the kind of experiment: biochemical. Particulars: PADRE Class II Binding Affinities DR4w4.
Assay [11] concerns the target T3, DRw53. Kind of assay: biochemical.
Assay [12] addresses T4, DR2w2a (Homo sapiens, UniProt P01903+Q30154). As to the kind of experiment: biochemical.
The target in assay [13] is T4, DR2w2a. Particulars: read-out: Binding capacity DR2w2a, IC50.
[14] abbreviates: read-out: PADRE Class II Binding Affinities DR5, Table VIII A.
Where [15] appears, read: read-out: PADRE Class II Binding Affinities DR7, Table VIII A.

Read-outs that look alike come from different tables or passages of the source. Non-standard residues stand in square brackets, D forms with d. Residues, ends and D or L forms follow the SMILES beside them. No end group written: not given here. Cha = N[C@@H](CC1CCCCC1)C(=O)O Where only a bound is given, the exact number is not on record here.

T3 sequence (P01903 26-254): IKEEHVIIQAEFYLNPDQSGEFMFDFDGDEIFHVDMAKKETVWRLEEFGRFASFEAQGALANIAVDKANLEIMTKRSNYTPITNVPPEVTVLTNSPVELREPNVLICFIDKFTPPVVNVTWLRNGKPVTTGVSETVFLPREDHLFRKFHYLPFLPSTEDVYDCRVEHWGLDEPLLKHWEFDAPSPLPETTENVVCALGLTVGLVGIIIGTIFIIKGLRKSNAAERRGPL
T3 sequence (P13762 30-266): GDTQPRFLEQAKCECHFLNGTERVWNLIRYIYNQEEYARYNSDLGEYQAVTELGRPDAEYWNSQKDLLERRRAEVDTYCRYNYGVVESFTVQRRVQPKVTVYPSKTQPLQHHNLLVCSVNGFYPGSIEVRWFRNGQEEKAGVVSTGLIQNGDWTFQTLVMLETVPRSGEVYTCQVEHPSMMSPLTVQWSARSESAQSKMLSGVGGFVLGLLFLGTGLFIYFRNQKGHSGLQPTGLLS
T4 sequence (P01903 26-254): as the sequence (P01903 26-254) above
T4 sequence (Q30154 30-266): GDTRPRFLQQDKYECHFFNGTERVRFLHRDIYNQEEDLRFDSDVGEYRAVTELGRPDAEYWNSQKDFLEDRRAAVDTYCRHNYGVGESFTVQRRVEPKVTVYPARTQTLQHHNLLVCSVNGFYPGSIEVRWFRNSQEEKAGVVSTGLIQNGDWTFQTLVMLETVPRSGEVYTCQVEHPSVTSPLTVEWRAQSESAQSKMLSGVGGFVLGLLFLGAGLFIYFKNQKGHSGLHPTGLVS

Take `C[C@H](NC(=O)[C@H](C)NC(=O)[C@H](C)NC(=O)[C@H](CC1CCCCC1)NC(=O)[C@H](C)NC(=O)[C@@H](C)N)C(=O)N[C@@H](C)C(=O)N[C@H](C(=O)N[C@@H](CCC(=O)O)C(=O)N[C@@H](CCCCN)C(=O)N[C@@H](C)C(=O)N[C@@H](C)C(=O)N[C@H](C)C(N)=O)[C@@H](C)O` [Peptide 906.30] (H-[dA]A[Cha]AAAATEKAA[dA]-NH2; N-terminus and C-terminus assumed): the “Loss of DR1 binding reactivity” value in [1] was found to be 8 fold. Also, the “Loss of DR4w4 binding reactivity” value in assay [2] was 7 fold. In addition, the IC50 in assay [3] (setting [14]) was determined as 51.5 nM; in assay [4] (setting [15]), 758 nM; in assay [5] it was 148 nM. The “Loss of DR5 binding reactivity” value in assay [3] (relative to parent 760.57) came out at 10 fold. The “Loss of DR7 binding reactivity” value in [4] (relative to parent 760.57) is listed as 10 fold. Moreover, in assay [5] (relative to parent 760.57), the “Increase in DQ3.1 binding reactivity” value is given as “no reactivity was gained”.

Consider `CC(C)C[C@H](NC(=O)[C@@H](NC(=O)[C@H](C)NC(=O)[C@H](C)NC(=O)[C@H](C)NC(=O)[C@H](C)NC(=O)[C@H](CC1CCCCC1)NC(=O)[C@H](C)NC(=O)[C@@H](C)N)[C@@H](C)O)C(=O)N[C@@H](CCCCN)C(=O)N[C@@H](C)C(=O)N[C@@H](Cc1ccccc1)C(=O)N[C@H](C)C(N)=O` [Peptide 906.50] (H-[dA]A[Cha]AAAATLKAF[dA]-NH2; N-terminus and C-terminus assumed), for which the “Increase in DR3 reactivity” value in assay [6] is 8 fold. The values for the IC50 in assay [3] (setting [14]), in assay [4] (setting [15]) and in assay [5] were 9.5 nM, 73.5 nM and 20 nM, respectively. Further, the “Increase in DR53 reactivity” value in assay [7] was 40 fold.

Turning to `CC(C)C[C@H](NC(=O)[C@@H](NC(=O)[C@H](Cc1c[nH]cn1)NC(=O)[C@H](C)NC(=O)[C@H](C)NC(=O)[C@@H](NC(=O)[C@H](CC1CCCCC1)NC(=O)[C@H](CCCCN)NC(=O)[C@@H](C)N)C(C)C)[C@@H](C)O)C(=O)N[C@@H](CCCCN)C(=O)N[C@@H](C)C(=O)N[C@@H](C)C(=O)N[C@H](C)C(N)=O` [Peptide 955.15], the “Donors with significant (>10,000 cpm) T cell response / donors tested, second stimulation” value in [8] was 2/15. Also, in assay [8], the “Donors with significant (>10,000 cpm) T cell response / donors tested, third stimulation” value is 4/5. Further, the IC50 amounted to 2500 nM in assay [9] (PADRE Class II Binding Affinities DR3, Table IX); 3.2 nM in assay [10]; 50 nM in assay [11]; 5.4 nM in assay [12] (PADRE Class II Binding Affinities DR2w282, Table IX).

`CC(C)C[C@H](NC(=O)[C@@H](NC(=O)[C@H](Cc1c[nH]c2ccccc12)NC(=O)[C@H](C)NC(=O)[C@H](C)NC(=O)[C@@H](NC(=O)[C@H](CC1CCCCC1)NC(=O)[C@H](CCCCN)NC(=O)[C@H](C)N)C(C)C)[C@@H](C)O)C(=O)N[C@@H](CCCCN)C(=O)N[C@@H](C)C(=O)N[C@@H](C)C(=O)N[C@@H](C)C(N)=O` [Peptide 965.17]: the “Donors with significant (>10,000 cpm) T cell response / donors tested, second stimulation” value in assay [8] is reported as 2/5. Moreover, the “Donors with significant (>10,000 cpm) T cell response / donors tested, third stimulation” value in assay [8] is 4/5. The IC50 is 3210 nM in assay [9] (PADRE Class II Binding Affinities DR3), 107 nM in assay [11] and 5.8 nM in assay [12] (PADRE Class II Binding Affinities DR2w282).

Take “YSGPLKAEIAQRLEDV [MT (Y)17-31, reference compound]”: the IC50 is more than 10000 nM in [3] (read-out: Binding capacity DR5, IC50); 208 nM in [4] (read-out: Binding capacity DR7, IC50); 350 nM in [13].

Source of the values: patent US6413935B1, “Induction of immune response against desired determinants” (priority 1993, dated 2002).
